Molecules are shown by their SMILES.

For the first assay, the system named is Human peripheral blood mononuclear cells (PBMCs) as Responder cells, RPMI 1788 Stimulator cells. The experiment in a line: Mixed Lymphocyte Reaction (MLR) test. It is filed as cell-based. The conditions noted are these: Homo sapiens, RPMI-1788, lowest concentration giving 50% inhibition of the MLR; 6 days coculture, 3H-thymidine incorporation. The procedure:
Human peripheral blood mononuclear cells (PBMCs) were isolated from buffy coats, obtained from healthy blood donors by Ficoll (Lymphoprep, Axis-Shield PoC AS, Oslo, Norway) density-gradient centrifugation. The cells at the Ficoll-plasma interface were washed three times and used as “Responder” cells. RPMI 1788 (ATCC, N^o CCL-156) cells were treated with mitomycin C (Kyowa, Nycomed, Brussel, Belgium) and used as “Stimulator” cells. Responder cells (0.12×10^6), Stimulator cells (0.045×10^6) and compounds (in different concentrations) were cocultured for 6 days in RPMI 1640 medium (BioWhittaker, Lonza, Belgium) supplemented with 10% fetal calf serum, 100 U/ml Geneticin (Gibco, LifeTechnologies, UK). Cells were cultured in triplicate in flat-bottomed 96-well microtiter tissue culture plates (TTP, Switzerland). After 5 days, cells were pulsed with 1 μCi of methyl-^3H thymidine (MP Biomedicals, USA), harvested 18 h later on glass filter paper and counted. Proliferation values were expressed as counts per minute (cpm), and converted to % inhibition with respect to a blank MLR test (identical but without added compound). […]
For `Nc1nc(SCc2ccccc2)c2nc(-c3ccc(F)cc3)sc2n1` [Example 28, 7-(benzylthio)-2-(4-fluorophenyl)thiazolo[5,4-d]pyrimidin-5-amine], the half-inhibitory concentration (IC50) is more than 10 µM.

As to `COCCOc1nc(N)nc2sc(-c3ccc(F)cc3)nc12` [Example 29, 2-(4-fluorophenyl)-7-(2-methoxyethoxy)-thiazolo[5,4-d]pyrimidin-5-amine], the IC50 is more than 10 µM.

`CCOc1nc(N)nc2sc(-c3ccc(F)cc3)nc12` [Example 30, 7-ethoxy-2-(4-fluorophenyl)thiazolo[5,4-d]pyrimidin-5-amine]: the half-maximal inhibitory concentration (IC50) is more than 10 µM.

On to `CCOc1nc(N)nc2sc(Cc3ccc(F)cc3)nc12` [Example 31, 7-ethoxy-2-(4-fluorobenzyl)thiazolo[5,4-d]pyrimidin-5-amine], for which the half-maximal inhibitory concentration (IC50) turned out to be 9.7 µM.

Take `Nc1nc(N2CCOCC2)c2nc(-c3ccc(F)cc3)sc2n1` [Example 33, 2-(4-fluorophenyl)-7-morpholino-thiazolo[5,4-d]pyrimidin-5-amine]: the IC50 was more than 10 µM.

With `Nc1nc(N2CCOCC2)c2nc(Cc3ccc(F)cc3)sc2n1` [Example 34, 2-(4-fluorobenzyl)-7-morpholino-thiazolo[5,4-d]pyrimidin-5-amine], the IC50 was more than 10 µM.

Take `Cc1cccc(N2CCN(c3nc(N)nc4sc(-c5ccc(F)cc5)nc34)CC2)c1` [Example 35, 2-(4-fluorophenyl)-7-(4-m-tolylpiperazin-1-yl)-thiazolo[5,4-d]pyrimidin-5-amine]: the IC50 was more than 10 µM.

For the compound `Nc1nc(N2CCN(c3nccs3)CC2)c2nc(-c3ccc(F)cc3)sc2n1` [Example 36, 2-(4-fluorophenyl)-7-(4-(thiazol-2-yl)piperazin-1-yl)thiazolo[5,4-d]pyrimidin-5-amine], the IC50 is more than 10 µM.

As to `CCCCCN1CCN(c2nc(N)nc3sc(-c4ccc(F)cc4)nc23)CC1` [Example 37, 2-(4-fluorophenyl)-7-(4-pentylpiperazin-1-yl)thiazolo[5,4-d]pyrimidin-5-amine], the 50% inhibitory concentration (IC50) is more than 10 µM.

For the compound `Nc1nc(N2CCN(CC(=O)N3CCOCC3)CC2)c2nc(-c3ccc(F)cc3)sc2n1` [Example 38, 2-(4-(5-amino-2-(4-fluorophenyl)thiazolo[5,4-d]pyrimidin-7-yl)piperazin-1-yl)-1-morpholinoethanone], the half-inhibitory concentration (IC50) is 4.8 µM. This lies in the single-digit micromolar range.

The compound `Nc1nc(N2CCN(Cc3ccccc3)CC2)c2nc(-c3ccc(F)cc3)sc2n1` [Example 39, 7-(4-benzylpiperazin-1-yl)-2-(4-fluorophenyl)thiazolo[5,4-d]pyrimidin-5-amine] yielded a half-inhibitory concentration (IC50) of more than 10 µM.

Turning to `Nc1nc(N2CCN(C(=O)OCc3ccccc3)CC2)c2nc(-c3ccc(F)cc3)sc2n1` [Example 40, benzyl-4-(5-amino-2-(4-fluorophenyl)thiazolo[5,4-d]pyrimidin-7-yl)piperazine-1-carboxylate], the IC50 was determined as 4.9 µM.

As to `Cc1ccc(NC(=O)N2CCN(c3nc(N)nc4sc(-c5ccc(F)cc5)nc34)CC2)cc1` [Example 42, 4-(5-amino-2-(4-fluorophenyl)-thiazolo[5,4-d]pyrimidin-7-yl)-N-p-tolylpiperazine-1-carboxamide], the 50% inhibitory concentration (IC50) came to 0.7 µM. This IC50 lies about 7-fold lower than the previous one.

With `Cc1cccc(NC(=O)N2CCN(c3nc(N)nc4sc(-c5ccc(F)cc5)nc34)CC2)c1` [Example 43, 4-(5-amino-2-(4-fluorophenyl)thiazolo[5,4-d]pyrimidin-7-yl)-N-m-tolylpiperazine-1-carboxamide], the midpoint of inhibition, the IC50, lay at 0.3 µM.

The compound `Cc1cccc(NC(=O)N2CCN(c3nc(N)nc4sc(Cc5ccc(F)cc5)nc34)CC2)c1` [Example 44, 4-(5-amino-2-(4-fluorobenzyl)thiazolo[5,4-d]pyrimidin-7-yl)-N-m-tolylpiperazine-1-carboxamide] displayed an IC50 of 0.4 µM.

The compound `Nc1nc(N2CCN(C(=O)COc3ccc(Cl)cc3)CC2)c2nc(-c3ccc(F)cc3)sc2n1` [Example 45, 1-(4-(5-amino-2-(4-fluorophenyl)thiazolo[5,4-d]pyrimidin-7-yl)piperazin-1-yl)-2-(4-chlorophenoxy)ethanone] came in with a half-maximal inhibitory concentration (IC50) of 0.3 µM.

`Nc1nc(N2CCN(C(=O)COc3ccc(Cl)cc3)CC2)c2nc(Cc3ccc(F)cc3)sc2n1` [Example 46, 1-(4-(5-amino-2-(4-fluorobenzyl)thiazolo[5,4-d]pyrimidin-7-yl)piperazin-1-yl)-2-(4-chlorophenoxy)ethanone] displayed an IC50 of 0.7 µM.

In the case of `Nc1nc(N2CCN(C(=O)COc3ccc(Cl)cc3)CC2)c2nc(CCOc3ccc(F)cc3)sc2n1` [Example 48, 1-(4-(5-amino-2-(2-(4-fluorophenoxy)ethyl)thiazolo[5,4-d]pyrimidin-7-yl)piperazin-1-yl)-2-(4-chlorophenoxy)ethanone], the half-maximal inhibitory concentration (IC50) stood at 3.54 µM.

As for `Nc1nc(N2CCN(C(=O)COc3ccc(Cl)cc3)CC2)c2nc(CCc3ccc(F)cc3)sc2n1` [Example 49, 1-(4-(5-amino-2-(4-fluorophenethyl)-thiazolo[5,4-d]pyrimidin-7-yl)piperazin-1-yl)-2-(4-chlorophenoxy)ethanone], half-maximal inhibition (IC50) required 4.4 µM.

Compound `Nc1nc(N2CCN(C(=O)COc3ccc(Br)cc3)CC2)c2nc(CCc3ccc(F)cc3)sc2n1` [Example 52, 1-(4-(5-amino-2-(4-fluorophenethyl)thiazolo[5,4-d]pyrimidin-7-yl)piperazin-1-yl)-2-(4-bromophenoxy)ethanone] registered an IC50 of more than 10 µM.

On to `CC(c1ccc(F)cc1)c1nc2c(N3CCN(C(=O)COc4ccc(Cl)cc4)CC3)nc(N)nc2s1` (stereo not drawn) [Example 66, 1-(4-(5-amino-2-(1-(4-fluorophenyl)ethyl)thiazolo[5,4-d]pyrimidin-7-yl)piperazin-1-yl)-2-(4-chlorophenoxy)ethanone], for which the IC50 is 4.38 µM.

As to `Nc1nc(N2CCN(C(=O)COc3ccc(Cl)cc3)CC2)c2nc(C3(c4ccccc4)CC3)sc2n1` [Example 114, 5-amino-7-[4-(4-chlorophenoxyacetyl)piperazin-1-yl]-2-(1-phenylcyclopropyl)thiazolo[5,4-d]pyrimidine], the IC50 worked out at 1.56 µM.

Compound `CSc1nc2c(N3CCN(C(=O)COc4ccc(Cl)cc4)CC3)nc(N)nc2s1` [Example 115, 5-amino-7-[4-(4-chlorophenoxyacetyl)piperazin-1-yl]-2-methylthio-thiazolo[5,4-d]pyrimidine] yielded a 50% inhibitory concentration (IC50) of more than 10 µM.

Turning to `Nc1nc(N2CCN(C(=O)COc3ccc(Cl)cc3)CC2)c2nc(-c3ccc(Cl)c(Cl)c3)sc2n1` [Example 116, 5-amino-7-[4-(4-chlorophenoxyacetyl)piperazin-1-yl]-2-(3,4-dichlorophenyl)thiazolo[5,4-d]pyrimidine], the half-maximal inhibitory concentration (IC50) stood at 5.29 µM.

Take `Nc1nc(N2CCN(C(=O)COc3ccc(Cl)cc3)CC2)c2nc(C3(c4ccc(Cl)cc4)CC3)sc2n1` [Example 117, 5-amino-7-[4-(4-chlorophenoxyacetyl)piperazin-1-yl]-2-(1-(4-chlorophenyl)cyclopropyl)thiazolo[5,4-d]pyrimidine]: inhibition was half-maximal at 2.51 µM (IC50). This IC50 is about 2.1-fold lower than that of the compound before.

`Nc1nc(N2CCN(C(=O)COc3ccc(Cl)cc3)CC2)c2nc(CCc3ccccc3)sc2n1` [Example 118, 5-amino-7-[4-(4-chlorophenoxyacetyl)piperazin-1-yl]-2-(2-phenylethyl)thiazolo[5,4-d]pyrimidine] returned a half-inhibitory concentration (IC50) of 0.86 µM.

The assay is the same for the next values; noted with them: lowest concentration giving 50% inhibition of the MLR; 6 days coculture, 3H-thymidine incorporation.
Compound `COCCCNc1nc(N)nc2sc(-c3ccc(F)cc3)nc12` [Example 32, 2-(4-fluorophenyl)-N-7-(3-methoxypropyl)thiazolo[5,4-d]pyrimidine-5,7-diamine] registered an IC50 of more than 10 µM.

The values are drawn from patent US9221822B2, “Thiazolopyrimidine modulators as immunosuppressive agents” (Katholieke Universiteit Leuven, K.U.Leuven R&D, priority 2009, dated 2015).
